For one data set, the target named is TXK (Homo sapiens, UniProt P42681). The data set is described as follows: Protein kinase panel at 1 µM, TXK. The data set is classed as biochemical.
The next data set addresses BLK (Homo sapiens, UniProt P51451). The data set can be described thus: Protein kinase panel at 1 µM, BLK. The data set is classed as biochemical.
For data set [1] the following is noted: monkey.
In the next data set the target is CYP2B6 (Homo sapiens, UniProt P20813). The class given is in vitro ADME. The source says:
(§1) Table S8 Inhibition of CYP isozymes by SY-1530 […]
(§2) (1 picture or pasted object on this page, not shown here)

The target in the next data set is CYP2D6 (Homo sapiens, UniProt P10635). The data set is classed as in vitro ADME.
Text: as §1, §2

The target of another data set is FGFR3 (Homo sapiens, UniProt P22607). The data set can be described thus: Protein kinase panel at 1 µM, FGFR3. The data set is classed as biochemical.
The next data set concerns the target FGR (Homo sapiens, UniProt P09769). The data set can be described thus: Protein kinase panel at 1 µM, FGR. The class given is biochemical.
Another data set has as its target CSK (Homo sapiens, UniProt P41240). The data set can be described thus: Protein kinase panel at 1 µM, CSK. The data set is classed as biochemical.
For the next data set, the target named is hERG (Homo sapiens, UniProt Q12809). The source says: Tissue distribution *From the literature.
Hear Liver Spleen LungKidney Brain Uteru Ovar TestisPlasma
Compound Maximum concentration (μM) Inhibition rate of maximumconcentration IC 50 (μM) […]

Another data set has as its system Rat. Conditions: in vivo. The text has this:
(§3) Table S9 Preclinical safety of SY-1530
(§4) Group Single-dose toxicity Multiple-dose toxicity
(§5) Animal Rat Beagle dog Rat Beagle dog

A further data set deals with Beagle dog. The settings on record: in vivo.
Text: as §3, §4, §5

The next data set deals with Caco-2. The settings on record: human.
Text: protein kinases Beagle dog PK
Kinase Inhibition (%) Kinase Inhibition (%) IV Oral
Species Plasma protein binding (%)
Tcells, and B-cell lymphoma
Compound Caco-2 permeability assay
as §2

The test system of the next data set is Pfeiffer cells. The data set can be described thus: Apoptosis detection (Annexin V / 7-AAD) in Pfeiffer cells. The data set is classed as cell-based. Conditions: 24 h, Annexin V and 7-AAD. As to the method: Apoptosis assays were performed with an Annexin V-PE Apoptosis Detection Kit I (BD Biosciences). Briefly, 5 × 10^5 Pfeiffer cells were seeded on 6-well plates and treated with BTK inhibitors at the indicated concentrations. After 24 h or 48 h, cells were collected and stained with PE Annexin V and 7-AAD according to the manufacturer’s instructions. FACS analysis was performed with a Guava flow cytometer.
Figure 4 SY-1530 blocks B-cell receptor signaling and induces apoptosis. (A–D) Human B and T cells were purified and incubated with different concentrations of BTK inhibitors for 1 h. B cells were stimulated with 50 μg/mL anti-human IgM F(ab′)2, and T cells were stimulated with 50 μg/mL anti-CD3/CD28 beads overnight directly or after washout of BTK inhibitors before stimulation. The percentage of CD69 positive cells was analyzed by flow cytometry. Data are shown as the mean ± SEM (n = 3). Statistical analysis was performed with Student’s t-test (*P < 0.05, **P < 0.01, ***P < 0.001). (E) Pfeiffer cells and Romas cells were preincubated with different concentrations of compounds for 1 h, washed with PBS, and then stimulated with anti-IgM/anti-IgG (10 μg/mL) for 10 min. Cells were lysed and analyzed by Western blot with the indicated antibodies. […] The cells were stained with both PE-Annexin and 7-AAD and analyzed by flow cytometry. […] Cells were lysed and analyzed with specific antibodies.

In a further data set the test system is TMD8. The data set can be described thus: Cell viability assay (CellTiter-Blue), TMD8. The class given is cell-based, human. Conditions: TMD8 cells; read-out: IC50 (nM), growth of TMD8. As to the method:
(§6) Cells were seeded on 96-well plates (9,000 cells/well), cultured at 37 °C in 5% CO2 overnight, and incubated with different concentrations of compounds for 3 or 7 days. Then the cells were stained with CellTiter-Blue® reagent (Promega) for 4 h at 37 °C. The fluorescence signals were detected with a FlexStation 3, and the IC50 values of each compound were determined with GraFit software (Version 6.0).
A general note: Alamar Blue is a resazurin reagent that responds to reducing activity.

The next data set deals with TEC (Homo sapiens, UniProt P42680). The data set is described as follows: HTRF kinase assay, TEC. For orientation: Time-resolved FRET reads energy transfer from a long-lived donor to a nearby acceptor.
The next data set deals with EGFR (Homo sapiens, UniProt P00533). The data set can be described thus: HTRF kinase assay, EGFR.
A further data set addresses BTK (Homo sapiens, UniProt Q06187). The data set can be described thus: LC-MS/MS of free inhibitor after incubation with BTK. The class given is binding. As for the experimental part:
In addition, after incubation of BTK with the inhibitors for 4 h, we performed liquid chromatography-tandem mass spectrometry (LC-MS/MS) to detect the abundance of the inhibitors.
(A) The compounds were incubated with BTK for 2 h, after which HTRF assays were performed with dilution of the mixture. The reactions were stopped at different time points. Data are shown as the mean ± SEM. (B) The content of the compounds was measured with LC-MS/MS after incubation with BTK for 4 h. Data are shown as the mean ± SEM (n = 3). Statistical analysis was performed with Student’s t-test (***P < 0.001). […] Cells were lysed and analyzed by Western blot and fluorescent gel scanning.
Data are shown as the mean ± SEM. […] Data are shown as the mean ± SEM of 3 independent experiments. Statistical analysis was performed with Student’s t-test (**P < 0.01, ***P < 0.001). […] Cells were lysed and then analyzed by Western blot and fluorescent gel scanning. […] Cells were lysed and analyzed by Western blot and fluorescent gel scanning.

The next data set has as its system T cell. The data set can be described thus: Cell viability assay (CellTiter-Blue), human T cells. The data set is classed as cell-based. The settings on record: read-out: IC50 (nM), growth of T cell. As to the method:
as §6
CD19^+ B (>80% purity) and CD3^+ T (>90% purity) cells were purified with human B cell enrichment cocktail and human T cell enrichment cocktail (Stem Cell Technology), respectively. Cells were seeded on 12-well plates and incubated with different concentrations of BTK inhibitors for 1 h. B cells were stimulated with 50 µg/mL anti-human IgM F(ab′)2, and T cells were stimulated with 50 µg/mL anti-CD3/CD28 beads overnight. In the washout groups, the cell medium containing the indicated inhibitors was replaced with fresh medium before stimulation. Then cells were then incubated with anti-human CD69 for 1 h and analyzed with a Guava flow cytometer.

[2] abbreviates: IC50 SY-1530 over IC50 ibrutinib.

The values that follow come from PMC9334755 (Cancer Biology & Medicine, 2021).

The term IC50 denotes the midpoint of a concentration-inhibition curve.

Structures are written as SMILES. Where two headings read alike, the source gives them in different places.

Sequence of BTK (Q06187 whole entry): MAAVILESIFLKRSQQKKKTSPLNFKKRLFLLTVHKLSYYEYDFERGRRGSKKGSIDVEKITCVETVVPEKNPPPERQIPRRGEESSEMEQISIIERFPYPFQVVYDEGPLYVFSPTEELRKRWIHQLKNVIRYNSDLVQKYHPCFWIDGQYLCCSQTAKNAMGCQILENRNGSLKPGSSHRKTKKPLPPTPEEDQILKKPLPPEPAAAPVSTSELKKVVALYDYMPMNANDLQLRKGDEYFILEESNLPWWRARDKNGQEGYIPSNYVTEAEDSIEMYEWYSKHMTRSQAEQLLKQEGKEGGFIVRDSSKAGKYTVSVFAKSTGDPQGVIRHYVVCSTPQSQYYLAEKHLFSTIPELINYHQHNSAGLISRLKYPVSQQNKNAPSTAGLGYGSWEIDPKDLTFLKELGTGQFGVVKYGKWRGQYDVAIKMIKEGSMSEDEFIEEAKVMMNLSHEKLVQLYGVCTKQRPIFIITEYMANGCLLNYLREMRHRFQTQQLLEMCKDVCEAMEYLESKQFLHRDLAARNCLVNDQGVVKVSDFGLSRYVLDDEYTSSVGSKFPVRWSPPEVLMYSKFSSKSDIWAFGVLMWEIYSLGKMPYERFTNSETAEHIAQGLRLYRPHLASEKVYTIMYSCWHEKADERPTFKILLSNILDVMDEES
Sequence of hERG (Q12809 whole entry): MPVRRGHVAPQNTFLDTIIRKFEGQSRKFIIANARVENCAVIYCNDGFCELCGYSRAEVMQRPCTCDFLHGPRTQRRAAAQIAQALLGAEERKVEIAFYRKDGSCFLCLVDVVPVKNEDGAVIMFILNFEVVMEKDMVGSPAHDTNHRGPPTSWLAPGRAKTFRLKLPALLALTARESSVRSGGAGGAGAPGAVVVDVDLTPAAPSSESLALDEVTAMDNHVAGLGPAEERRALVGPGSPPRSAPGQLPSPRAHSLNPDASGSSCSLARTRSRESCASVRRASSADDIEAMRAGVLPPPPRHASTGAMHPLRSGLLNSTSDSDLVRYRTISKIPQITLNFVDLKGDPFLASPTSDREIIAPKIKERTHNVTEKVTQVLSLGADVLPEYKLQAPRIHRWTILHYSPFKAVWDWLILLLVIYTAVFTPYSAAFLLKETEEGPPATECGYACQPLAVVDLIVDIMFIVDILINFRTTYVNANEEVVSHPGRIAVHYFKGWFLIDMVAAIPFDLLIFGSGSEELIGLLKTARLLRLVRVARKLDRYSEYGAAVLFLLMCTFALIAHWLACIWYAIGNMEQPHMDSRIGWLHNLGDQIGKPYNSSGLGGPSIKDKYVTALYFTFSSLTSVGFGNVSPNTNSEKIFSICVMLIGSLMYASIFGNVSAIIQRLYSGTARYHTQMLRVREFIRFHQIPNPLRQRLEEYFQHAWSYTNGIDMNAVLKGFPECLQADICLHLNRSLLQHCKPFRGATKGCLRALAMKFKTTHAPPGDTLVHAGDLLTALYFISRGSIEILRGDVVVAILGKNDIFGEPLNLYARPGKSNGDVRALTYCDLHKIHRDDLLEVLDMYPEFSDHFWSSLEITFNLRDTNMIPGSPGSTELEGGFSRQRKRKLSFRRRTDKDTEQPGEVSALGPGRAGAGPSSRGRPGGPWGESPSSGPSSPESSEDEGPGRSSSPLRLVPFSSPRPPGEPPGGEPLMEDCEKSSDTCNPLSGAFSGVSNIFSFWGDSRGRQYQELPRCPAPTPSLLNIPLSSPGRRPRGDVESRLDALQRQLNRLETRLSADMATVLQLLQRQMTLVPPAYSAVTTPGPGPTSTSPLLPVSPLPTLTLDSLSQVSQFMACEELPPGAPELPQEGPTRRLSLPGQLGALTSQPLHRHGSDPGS
Sequence of EGFR (P00533 25-1210): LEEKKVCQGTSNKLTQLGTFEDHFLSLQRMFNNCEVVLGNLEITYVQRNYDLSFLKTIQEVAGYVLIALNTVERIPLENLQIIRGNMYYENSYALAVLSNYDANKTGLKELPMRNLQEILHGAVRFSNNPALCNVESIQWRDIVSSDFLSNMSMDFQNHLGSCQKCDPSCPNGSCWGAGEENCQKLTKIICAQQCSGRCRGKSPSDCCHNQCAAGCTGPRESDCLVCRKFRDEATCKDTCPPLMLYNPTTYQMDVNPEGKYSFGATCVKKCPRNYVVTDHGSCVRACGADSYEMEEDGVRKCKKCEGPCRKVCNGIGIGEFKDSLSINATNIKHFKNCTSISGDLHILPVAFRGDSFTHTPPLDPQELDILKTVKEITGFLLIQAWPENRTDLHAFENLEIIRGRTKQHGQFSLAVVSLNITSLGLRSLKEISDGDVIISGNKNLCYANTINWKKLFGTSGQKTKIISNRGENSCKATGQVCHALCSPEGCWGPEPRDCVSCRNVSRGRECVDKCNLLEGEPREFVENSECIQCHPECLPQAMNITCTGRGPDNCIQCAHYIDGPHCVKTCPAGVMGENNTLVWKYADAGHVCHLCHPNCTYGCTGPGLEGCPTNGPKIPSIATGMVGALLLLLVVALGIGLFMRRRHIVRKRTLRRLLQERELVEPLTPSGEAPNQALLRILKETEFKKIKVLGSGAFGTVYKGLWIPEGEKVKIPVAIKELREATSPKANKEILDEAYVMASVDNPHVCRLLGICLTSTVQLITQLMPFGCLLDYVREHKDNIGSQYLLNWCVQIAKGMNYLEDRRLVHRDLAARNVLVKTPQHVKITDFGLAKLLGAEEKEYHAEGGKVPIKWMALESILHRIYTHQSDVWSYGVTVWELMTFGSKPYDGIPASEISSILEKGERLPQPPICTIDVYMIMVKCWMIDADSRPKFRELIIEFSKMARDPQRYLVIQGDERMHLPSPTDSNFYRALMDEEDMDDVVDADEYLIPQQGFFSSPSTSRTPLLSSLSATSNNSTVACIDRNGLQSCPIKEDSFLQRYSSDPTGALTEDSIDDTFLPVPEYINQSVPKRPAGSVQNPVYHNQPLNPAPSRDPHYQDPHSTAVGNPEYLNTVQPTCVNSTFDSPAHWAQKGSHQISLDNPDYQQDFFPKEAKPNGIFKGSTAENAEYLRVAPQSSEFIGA
Sequence of TEC (P42680 whole entry): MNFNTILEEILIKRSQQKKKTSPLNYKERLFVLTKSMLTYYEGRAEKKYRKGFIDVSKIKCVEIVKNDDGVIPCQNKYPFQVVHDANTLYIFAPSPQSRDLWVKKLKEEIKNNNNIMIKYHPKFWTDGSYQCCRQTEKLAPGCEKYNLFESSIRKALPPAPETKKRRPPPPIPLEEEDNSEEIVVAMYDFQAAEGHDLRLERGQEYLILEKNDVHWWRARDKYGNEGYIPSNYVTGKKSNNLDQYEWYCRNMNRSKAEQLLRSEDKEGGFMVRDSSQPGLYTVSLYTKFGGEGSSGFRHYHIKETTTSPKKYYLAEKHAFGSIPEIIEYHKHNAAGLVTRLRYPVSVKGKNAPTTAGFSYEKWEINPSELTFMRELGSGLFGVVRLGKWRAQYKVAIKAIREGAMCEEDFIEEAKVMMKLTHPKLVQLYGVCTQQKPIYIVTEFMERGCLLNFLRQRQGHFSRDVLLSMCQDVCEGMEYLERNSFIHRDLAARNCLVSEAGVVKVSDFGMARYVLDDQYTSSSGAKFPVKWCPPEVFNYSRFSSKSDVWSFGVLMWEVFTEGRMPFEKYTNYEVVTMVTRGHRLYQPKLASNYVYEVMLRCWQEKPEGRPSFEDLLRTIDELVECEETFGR
Sequence of CYP2B6 (P20813 whole entry): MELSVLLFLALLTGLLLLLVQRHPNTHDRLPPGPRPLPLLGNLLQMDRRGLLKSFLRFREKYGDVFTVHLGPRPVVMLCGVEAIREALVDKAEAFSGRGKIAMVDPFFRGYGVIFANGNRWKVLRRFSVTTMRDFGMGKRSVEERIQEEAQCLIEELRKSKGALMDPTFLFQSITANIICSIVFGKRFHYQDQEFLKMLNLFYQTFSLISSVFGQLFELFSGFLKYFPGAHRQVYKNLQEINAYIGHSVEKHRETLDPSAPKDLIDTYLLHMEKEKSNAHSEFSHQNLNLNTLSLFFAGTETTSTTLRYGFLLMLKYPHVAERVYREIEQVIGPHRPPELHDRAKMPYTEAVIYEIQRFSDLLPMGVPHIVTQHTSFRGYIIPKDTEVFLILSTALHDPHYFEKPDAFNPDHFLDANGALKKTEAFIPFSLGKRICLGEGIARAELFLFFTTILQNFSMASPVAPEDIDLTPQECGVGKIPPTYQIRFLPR
Sequence of CSK (P41240 whole entry): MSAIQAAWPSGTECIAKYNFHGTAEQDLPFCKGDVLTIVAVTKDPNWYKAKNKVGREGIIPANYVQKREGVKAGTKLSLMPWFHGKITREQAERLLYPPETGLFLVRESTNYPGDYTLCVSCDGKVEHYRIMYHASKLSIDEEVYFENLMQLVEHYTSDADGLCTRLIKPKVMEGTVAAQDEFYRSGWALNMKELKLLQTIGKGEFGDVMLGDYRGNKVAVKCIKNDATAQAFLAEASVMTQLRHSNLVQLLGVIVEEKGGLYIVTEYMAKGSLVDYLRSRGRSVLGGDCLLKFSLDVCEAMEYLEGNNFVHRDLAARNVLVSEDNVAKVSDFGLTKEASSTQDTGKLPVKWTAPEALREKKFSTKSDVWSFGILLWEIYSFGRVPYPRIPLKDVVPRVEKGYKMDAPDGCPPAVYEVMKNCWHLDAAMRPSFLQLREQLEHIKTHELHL
Sequence of CYP2D6 (P10635 whole entry): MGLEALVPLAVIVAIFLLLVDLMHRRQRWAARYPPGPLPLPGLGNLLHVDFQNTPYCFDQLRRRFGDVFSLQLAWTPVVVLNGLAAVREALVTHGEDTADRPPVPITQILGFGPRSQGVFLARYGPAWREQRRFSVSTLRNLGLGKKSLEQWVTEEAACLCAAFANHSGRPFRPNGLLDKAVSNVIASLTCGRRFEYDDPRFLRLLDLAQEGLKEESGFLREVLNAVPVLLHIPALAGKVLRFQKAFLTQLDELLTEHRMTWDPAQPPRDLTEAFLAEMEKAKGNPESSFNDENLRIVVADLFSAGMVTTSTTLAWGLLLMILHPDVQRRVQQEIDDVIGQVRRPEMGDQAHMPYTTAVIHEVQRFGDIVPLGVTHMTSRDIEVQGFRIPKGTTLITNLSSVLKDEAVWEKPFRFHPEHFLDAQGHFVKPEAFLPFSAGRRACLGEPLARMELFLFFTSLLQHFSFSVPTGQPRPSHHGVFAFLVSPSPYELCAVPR
Protocol for EGFR: Homogeneous time-resolved fluorescence (HTRF) assays were performed with a HTRF® KinEASE™-TK kit (Trevigen).

For `COC/C=C/C(=O)N1CC[C@@H](n2nc(-c3ccc(Oc4ccccc4)cc3)c(C(N)=O)c2N)C1` [SY-1530], the “Inhibition (%), TXK” value on TXK is on record as 73%. On BLK, the “Inhibition (%), BLK” value was found to be 53%. Moreover, the “Plasma protein binding (%)” value in [1] stood at 95.3%. For the same compound, the IC50 on CYP2B6 was above 25000 nM; on CYP2D6, above 25000 nM; on hERG it was 5410 nM; in the data set with TMD8 it was 15.6 nM; at TEC (read-out: IC50 (nM), TEC, HTRF), 10.4 nM; at EGFR (read-out: IC50 (nM), EGFR, HTRF) it was 360 nM. The IC50 in the data set with T cell is above 10000 nM. In addition, the “Inhibition (%), FGFR3” value at FGFR3 amounted to 25%. In addition, on FGR, the “Inhibition (%), FGR” value is 96%. Further, on CSK, the “Inhibition (%), CSK” value came out at 84%. The “Inhibition rate of maximum concentration, hERG” value on hERG (30 µM) was found to be 86.75 ± 2.61%. The “MTD” value is listed as 2000 mg/kg in the data set with Rat and 1000 mg/kg in the data set with Beagle dog. The “Ratio = Papp BL→AP/Papp AP→BL” value in the data set with Caco-2 (Caco-2, 0.1 μM) was 2.46; in the data set on Caco-2 (Caco-2, 1 μM), 2.58; in the data set on Caco-2 (Caco-2, 10 μM) it was 2.92. Further, the “Apoptosis in Pfeiffer cells” value with Pfeiffer cells is “induced early and late apoptosis”. In addition, the “Ratio, TEC” value at TEC (setting [2]) is on record as 1.3. In addition, the “Ratio, EGFR” value on EGFR (setting [2]) was determined as 225. The “Incubation time to saturation of covalent binding to BTK kinase” value at BTK is 30 min. Further, on BTK (4 h incubation), the “Decrease of free inhibitor after incubation with BTK” value is recorded as “more than 80%”.
